Columns and labels:
[1] = LNP size and PDI by dynamic laser light scattering; assay type: physicochemical; details: LNP: 50% cationic lipid, 38.5% cholesterol, 10% DSPC, 1.5% DMG-PEG2000; Ffluc mRNA
Experimental: (§1) 1. The cationic lipid (50 mg/mL) prepared in the above examples of the present disclosure, cholesterol (20 mg/mL), DSPC (20 mg/mL) and DMG-PEG2000 (20 mg/mL) were dissolved in ethanol, and the solution was placed in a 55° C. metal thermostatic bath as needed to aid dissolution, to obtain a lipid mixture with the following molar composition: 1.5% DMG-PEG2000, 50% cationic lipid, 38.5% cholesterol, and 10% DSPC.
(§2) 2. The mRNA encoding Ffluc was diluted with 10 mM pH 4.0 citrate buffer to prepare a 0.2 mg/mL mRNA solution.
(§3) 3. The lipid mixture prepared in step 1 was mixed with the mRNA solution prepared in step 2 using a syringe pump with a tee at a total flow rate of 40 mL/min.
(§4) 4. The LNP mixture was collected after the three-way mixing and placed in a dialysis bag with a molecular weight cut-off of 100 KDa.
(§5) 5. The LNP mixture was dialyzed overnight against 50 mM Tris-buffered saline, pH 7.4.
(§6) 6. Sieving, and subsequent measurement of the sieved LNP to measure the PDI of the LNP by dynamic laser light scattering; to measure the mRNA encapsulation efficiency and concentration by Ribogreen assay; and to measure the pKa by TNS-α assay.

[2] = mRNA encapsulation efficiency of LNP by Ribogreen assay; assay type: physicochemical; details: LNP: 50% cationic lipid, 38.5% cholesterol, 10% DSPC, 1.5% DMG-PEG2000; Ffluc mRNA
Experimental: as §1, §2, §3, §4, §5, §6

mice = experiment: In vivo delivery of Ffluc mRNA LNP in mice, intravenous administration, luminescence relative to MC3; parameters: species or system mice (female Balb/C); details: fold change in luminescence intensity relative to MC3; 0.06 mg/kg tail vein; 6 h after injection
Experimental: The prepared encapsulation solution was applied to mice in the following manner, and its delivery efficiency in mice was tested. Among them, DLin-MC3-DMA (MC3) was a cationic liposome for delivering small nucleic acids that was approved by the FDA for marketing in 2018, which has high nucleic acid drug delivery efficiency and biosafety, and was usually used as the industry gold standard in the screening process of cationic lipids. In the evaluation of mice experiments, the ratio of nucleic acid delivery efficiency normalized to MC3 was greater than 0.1, which was considered to be a cationic lipid with high delivery efficiency.
1. The LNP solution was diluted with 50 mM TBS, pH 7.4 to a concentration of 0.1 mg/mL mRNA.
2. The mice involved in this study were female Balb/C, weighing 18-22 g, 6-8 weeks old, with 5 mice in each group.
3. The dosing solution was kept at 4° C. prior to injection.
4. Each mice received 0.06 mg/kg via tail vein injection.
5. The mice were injected intraperitoneally with 200 μL of 1.5 mg/mL D-luciferin solution 6 h after injection.
6. The in vivo luminescence images of the mice were obtained using the IVIS system (Aniview).
7. The luminescence intensity of each mice was measured using Aniview software.
8. MC3 lipid nanoparticles were used as a positive control. The in vivo efficacy of each cationic lipid tested was recorded as the fold change in luminescence intensity relative to MC3 (ratio normalized to MC3).

Compound | PDI [1] | Size (nm) [1] | Encapsulation Rate [2] | In Vivo Efficacy Normalized To Mc3 In Mice (Intravenous Injection) (mice)
((3-hydroxypropyl)azanediyl)bis(butane-4,1-diyl)(2E,2′E)-bis(3-butylundec-2-enoate) [CPL-021] | 0.0729 | 69.64 nm | 95% | 0.75
CCCCCCC/C(=C/C(=O)OCCCCN(CCCO)CCCCOC(=O)/C=C(\CCCCCC)CCCCCCC)CCCCCC [CPL-031, ((3-hydroxypropyl)azanediyl)bis(butane-4,1-diyl) (2E,2′E)-bis(3-hexyldec-2-enoate)] | 0.2448 | 92.39 nm | 94% | 0.75
CCCCCCCC/C(=C\C(=O)OCCCCN(CCCO)CCCCOC(=O)/C=C(/CCCCCCC)CCCCCCCC)CCCCCCC [CPL-032, ((3-hydroxypropyl)azanediyl)bis(butane-4,1-diyl)(2Z,2′Z)-bis(3-heptylundec-2-enoate)] | 0.1692 | 90.11 nm | 91% | 1.18
CCCCCCCC/C(=C/C(=O)OCCCCCCN(CCCO)CCCCCCOC(=O)/C=C(\CCC)CCCCCCCC)CCC [CPL-061, ((3-hydroxypropyl)azanediyl)bis(hexane-6,1-diyl) (2E,2′E)-bis(3-propylundec-2-enoate)] | 0.1612 | 94.04 nm | 94% | 1.06
CCCCCCCC/C(=C/C(=O)OCCCCCN(CCCCO)CCCCCOC(=O)/C=C(\CCCCCC)CCCCCCCC)CCCCCC [CPL-003, ((4-hydroxybutyl)azanediyl)bis(pentane-5,1-diyl)(2E,2′E)-bis(3-hexylundec-2-enoate)] | 0.205 | 98 nm | 92% | 1.55
CCCCC/C=C\C/C=C\CCCCCCCC(=O)OCC(COC(=O)/C=C(\CCCC)CCCCC)COC(=O)OCCN(C)C (stereo not shown) [CPL-199, 3-(((E)-3-butyloct-2-enoyl)oxy)-2-((((2-(dimethylamino)ethoxy)carbonyl)oxy)methyl)propyl(9Z,12Z)-octadeca-9,12-dienoate] | 0.1394 | 86.92 nm | 96% | 0.12
CCCCC/C=C\C/C=C\CCCCCCCC(=O)OCC(COC(=O)C=C(CCCCCCCCCC)CCCCCCCCCC)COC(=O)OCCCCN(C)C (stereo not shown) [CPL-256, 3-((3-decyltridec-2-enoyl)oxy)-2-((((4-(dimethylamino)butyloxy)carbonyl)oxy)methyl)propyl(9Z,12Z)-octadeca-9,12-dienoate] | 0.1009 | 83.7 nm | 95% | 0.63
CCCCCCC/C(=C/C(=O)OCCCCCCCCCCCN(CCCO)CCCCCCCCCCCOC(=O)/C=C(\CCCC)CCCCCCC)CCCC [CPL-184, ((3-hydroxypropyl)azanediyl)bis(undecane-11,1-diyl) (2E,2′E)-bis(3butyldec-2-enoate)] | 0.173 | 84.6 nm | 94% | 0.98
CCCCC/C=C\C/C=C\CCCCCCCC(=O)OCC(COC(=O)C=C(CCCCCCCC)CCCCCCCC)COC(=O)OCCN(C)C (stereo not shown) [CPL-210, 3-(((2-(dimethylamino)ethoxy)carbonyl)oxy)-2-(((3-octylundec-2-enoyl)oxy)methyl)propyl(9Z,12Z)-octadeca-9,12-dienoate] | 0.2144 | 52.37 nm | 83% | 0.14
CCCCCCCCCC/C(=C/C(=O)OCCCCCCCCCCN(CCCO)CCCCCOC(=O)/C=C(\CCCC)CCCCCCCCCC)CCC [CPL-1093, 10-(((5-(E)-3-butyltridec-2-enoyl)oxy)pentyl)((3-hydroxypropyl)amino)decyl(E)-3-propyl-2-tridecenoate] | 0.21 | 112.08 nm | 99% | 1.55
CCCCC/C=C\C/C=C\CCCCCCCC(=O)OCC(COC(=O)C=C(CCCCCCCCCC)CCCCCCCCCC)COC(=O)OCC1CCN(CC)CC1 (stereo not shown) [CPL-454, 3-((3-decyltridec-2-enoyl)oxy)-2-(((((1-ethylpiperidin-4-yl)methoxy)carbonyl)oxy)methyl)propyl(9Z,12Z)-octadeca-9,12-dienoate] | 0.1315 | 83.51 nm | 99% | 0.88

The next lines start with results.

PDI [1] | Size (nm) [1] | Encapsulation Rate [2] | Compound | In Vivo Efficacy Normalized To Mc3 In Mice (Intravenous Injection) (mice)
0.009 | 91.52 nm | 96% | CCCCC/C=C\C/C=C\CCCCCCCC(=O)OCC(COC(=O)/C=C(/CCCC)CCCCCC)COC(=O)OCCCN1CCCCC1 (stereo not shown) [CPL-416, 3-(((Z)-3-butylnon-2-enoyl)oxy)-2-((((3-(piperidin-1-yl)propoxy)carbonyl)oxy)methyl)propyl(9Z,12Z)-octadeca-9,12-dienoate] | 0.43
0.1194 | 114.4 nm | 87% | CCCCC/C=C\C/C=C\CCCCCCCC(=O)OCC(COC(=O)/C=C(/CCCC)CCCCCC)COC(=O)OCCCN(C)C (stereo not shown) [CPL-218, 3-(((Z)-3-butylnon-2-enoyl)oxy)-2-((((3-(dimethylamino)propoxy)carbonyl)oxy)methyl)propyl(9Z,12Z)-octadeca-9,12-dienoate] | 0.19
0.1118 | 69.42 nm | 95% | CCCCC/C=C\C/C=C\CCCCCCCC(=O)OCC(COC(=O)/C=C(\CCCCCCC)CCCCCCCCCC)COC(=O)OCCCN(C)C (stereo not shown) [CPL-231, 3-(((3-(dimethylamino)propoxy)carbonyl)oxy)-2-((((E)-3-heptyltridec-2-enoyl)oxy)methyl)propyl(9Z,12Z)-octadeca-9,12-dienoate] | 0.55
0.1651 | 101.6 nm | 90% | CCCCCCC(=CC(=O)OCCCCCN(CCCO)CCCCCOC(=O)C=C(CCCCCC)CCCCCC)CCCCCC [CPL-049, ((3-hydroxypropyl)azanediyl)bis(pentane-5,1-diyl)(2E,2′E)-bis(3-hexylnon-2-enoate)] | 1.88
0.1904 | 82.69 nm | 94% | CCCCC/C=C\C/C=C\CCCCCCCC(=O)OCC(COC(=O)/C=C(\CCCCC)CCCCCCCC)COC(=O)OCCCN1CCCCC1 (stereo not shown) [CPL-421, 3-(((E)-3-pentylundec-2-enoyl)oxy)-2-((((3-(piperidin-1-yl)propoxy)carbonyl)oxy)methyl)propyl(9Z,12Z)-octadeca-9,12-dienoate] | 0.37
0.1182 | 90.88 nm | 98% | CCCCC/C=C\C/C=C\CCCCCCCC(=O)OCC(COC(=O)/C=C(/CCCC)CCCCCC)COC(=O)OCC1CCCN(C)C1 (stereo not shown) [CPL-372, 3-(((Z)-3-butylnon-2-enoyl)oxy)-2-(((((1-methylpiperidin-3-yl)methoxy)carbonyl)oxy)methyl)propyl(9Z,12Z)-octadeca-9,12-dienoate] | 1.01
0.1369 | 86.5 nm | 98% | CCCCC/C=C\C/C=C\CCCCCCCC(=O)OCC(COC(=O)/C=C(\CCCCCCC)CCCCCCCC)COC(=O)OCCCCN(C)C (stereo not shown) [CPL-252] | 0.34
0.1411 | 73.57 nm | 96% | CCCCC/C=C\C/C=C\CCCCCCCC(=O)OCC(COC(=O)/C=C(\CCCCCCC)CCCCCCCC)COC(=O)OCCCN1CCCCC1 (stereo not shown) [CPL-428, 3-(((E)-3-heptylundec-2-enoyl)oxy)-2-((((3-(piperidin-1-yl)propoxy)carbonyl)oxy)methyl)propyl(9Z,12Z)-octadeca-9,12-dienoate] | 0.34

From patent US20250214925A1, “CATIONIC LIPID, LIPOSOME, LIPID NANOPARTICLE, AND USE” (CARCELL BIOPHARMA LTD., priority 2022, published 2025)
